Assay results taken from patent US20130196000A1, “COMBINATION THERAPY INCLUDING ISOPHO[…], ANALOGS, OR SALTS THEREOF” (ZIOPHARM ONCOLOGY, INC., priority 2012, published 2013).

Experiment: Multicenter phase Ib open-label dose-escalation study of IPM-tris plus carboplatin/etoposide (PaCE): safety, DLT and MTD
Type: in vivo, human
Experimental: A multicenter phase I, open-label, dose-escalation study assessing the safety and efficacy of IPM-tris in combination with carboplatin (C) and etoposide (E) (PaCE regimen) in SCLC and in other cancers in which C+E is considered appropriate was conducted. Tumor responses were assessed by RECIST 1.1 and relevant tumor markers.
To be eligible, each subject met each of the following criteria: (i) age >18 years; (ii) subject with documentation of a malignancy scheduled to receive etoposide and carboplatin therapy (including, but not limited to testicular cancer, thymoma, ovarian cancer, osteosarcoma, non-small cell lung cancer, and small cell lung cancer); (iii) ECOG Performance Status of 0 or 1; (iv) adequate bone marrow, liver, and renal function, as assessed by the following laboratory requirements conducted within 14 days prior to dosing; and (v) subjects for whom there is no curative standard therapy.
IPM tris(hydroxymethyl)methylammonium salt (IPM-tris) was given by intravenous (IV) infusion over approximately 30 minutes on days 1, 2, and 3 of each 21 day cycle. Each IPM-tris infusion to a subject was completed within 1 hour (and not more than 90 minutes) of dose preparation in the IV bag. Etoposide was given by IV infusion over approximately 60 minutes on days 1, 2, and 3 of each 21 day cycle. Carboplatin was given by IV infusion over approximately 30 minutes on day 1 of each 21 day cycle.
Each vial of IPM-tris was reconstituted with 14.6% sodium chloride for Injection, to a final concentration of 50.0 mg per mL. If the 14.6% sodium chloride diluent was not available, sites used 5.0%, 5.7%, 8.5%, or 0.9% sodium chloride for injection as the reconstitution diluent according to the same reconstitution instructions. Other standard sodium chloride solutions commercially available in other countries can be used to reconstituted IPM-tris. The IV infusion of IPM-tris was completed within 2.5 hours of reconstitution in the vial.
The doses of IPM-tris, etoposide, and carboplatin for each subject were calculated by the pharmacist based on the dose level and the subject's body surface area (BSA) on the first day of each cycle. BSA was calculated using their Institutional guidelines for calculating BSA or, the calculation for BSA by the Mosteller formula was used (note: SQRT=square root): […]
The maximum tolerable dose (MTD) of IPM-tris when administered in combination with etoposide and carboplatin at fixed doses (90 mg/m^2 and AUC 4, respectively) was determined An additional dose cohort was also evaluated using an escalated dose level of etoposide (100 mg/m^2) in combination with the IPM-tris MTD and carboplatin (AUC 4). Once the recommended doses were determined, this combination regimen was further studied in subjects with small cell lung cancer.

NC(CO)(CO)CO.O=P(O)(NCCCl)NCCCl [IPM-tris, IPM tris(hydroxymethyl)methylammonium salt]
patients with dose limiting toxicity (neutropenic fever) (at 150 mg/m^2 of IPM-tris): one
maximum tolerated dose of IPM-tris (in combination with etoposide 90 mg/m^2 and carboplatin AUC 4 (Cohort 2), IV days 1, 2, 3 of 21 day cycle): **Based on dose escalation cohorts completed prior to Amendment 6, the maximum tolerated dose of IPM-tris was determined to be 130 mg/m^2 when administered in combination with etoposide 90 mg/m^2 and carboplatin AUC 4 (Cohort 2).
maximum tolerated dose of IPM-tris (in combination with etoposide 100 mg/m^2 and carboplatin AUC 4): 130 mg/m^2
IPM-tris dosage found to result in DLT (in combination with etoposide and carboplatin): 150 mg/m^2/day
